pIC50: −log10 of the molar value. Activity calls are given as the source filed them. The rule behind the calls is not given here.
Tests used:
[1] = target: T1, D-3-phosphoglycerate dehydrogenase (Homo sapiens) (UniProt O43175); assay: Binding affinity to 3-PGDH in human HEI-193 cells harboring NF2 mutant at 100 uM after 30 mins by SDS-PAGE analysis; type: cell-based
T1 sequence (whole entry): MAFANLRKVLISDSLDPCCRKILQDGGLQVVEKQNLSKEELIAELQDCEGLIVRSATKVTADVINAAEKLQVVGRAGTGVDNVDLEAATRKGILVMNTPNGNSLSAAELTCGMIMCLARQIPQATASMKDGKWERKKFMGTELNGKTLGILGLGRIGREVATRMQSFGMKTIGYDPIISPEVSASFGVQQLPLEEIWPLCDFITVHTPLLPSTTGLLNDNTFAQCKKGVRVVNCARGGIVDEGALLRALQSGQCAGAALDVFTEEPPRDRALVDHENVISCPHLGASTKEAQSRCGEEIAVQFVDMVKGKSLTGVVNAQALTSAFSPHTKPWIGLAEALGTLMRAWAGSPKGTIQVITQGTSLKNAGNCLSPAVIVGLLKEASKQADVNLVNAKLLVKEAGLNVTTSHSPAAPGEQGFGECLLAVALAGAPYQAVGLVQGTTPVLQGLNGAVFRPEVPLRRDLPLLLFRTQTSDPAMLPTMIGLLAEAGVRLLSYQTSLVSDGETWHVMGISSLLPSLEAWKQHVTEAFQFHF

[2] = target: Heat shock protein HSP90 (Homo sapiens) (UniProt P07900+P08238); assay: Binding affinity to Hsp90 in human HEI-193 cells harboring NF2 mutant at 100 uM after 30 mins by SDS-PAGE analysis; type: cell-based
[3] = tested on: HEI-193; assay: Binding affinity to Hsp70 in human HEI-193 cells harboring NF2 mutant at 100 uM after 30 mins by SDS-PAGE analysis; type: cell-based
[4] = target: Actin, cytoplasmic 1 (Homo sapiens) (UniProt P60709); assay: Binding affinity to beta-actin in human HEI-193 cells harboring NF2 mutant at 100 uM after 30 mins by SDS-PAGE analysis; type: cell-based
[5] = Cytotoxicity against human HEI-193 cells harboring NF2 mutant assessed as growth inhibition after 72 hrs by MTT assay; type: functional, cell-based; details: HEI-193, 72 h
[6] = Downregulation of Hsp27 expression in human keratinocytes at 10 uM; type: functional, cell-based; details: Keratinocyte

Structure (SMILES) | Activity [1] | Activity [2] | Activity [3] | Activity [4] | pIC50 [5] | Activity [6]
COc1cc(/C=C/C(=O)CC(=O)/C=C/c2ccc(OC(=O)CCCC(=O)NCCCOCCOCCOCCCNC(=O)CCCC[C@@H]3SC[C@@H]4NC(=O)N[C@@H]43)c(OC)c2)ccc1O | Active | Active | Active | Active | 4.44 | 
COc1cc(/C=C/C(=O)CC(=O)/C=C/c2ccc(O)c(OC)c2)ccc1O [CURCUMIN] |  |  |  |  | 4.74 | 34%
